Experimental data published in US20030087906A1, “NITROGEN SUBSTITUTED BIARYL PURINE DERIVATIVES AS POTENT ANTIPROLIFERATIVE AGENTS” (priority 2001, published 2003).
Values joined by “and” are separate entries in the source; they are usually repeats but may differ in a detail not shown here. Equal values may be shown once.

Tests used:
BT-549 = test: NCI 60-cell line growth inhibition assay; format: cell-based; conditions: Homo sapiens
NCI/ADR-RES = test: NCI 60-cell line growth inhibition assay; format: cell-based; conditions: Homo sapiens
T-47D = test: NCI 60-cell line growth inhibition assay; format: cell-based; conditions: Homo sapiens, T47D
SF-268 = test: NCI 60-cell line growth inhibition assay; format: cell-based; conditions: Homo sapiens
SF-539 = test: NCI 60-cell line growth inhibition assay; format: cell-based; conditions: Homo sapiens
SNB-19 = test: NCI 60-cell line growth inhibition assay; format: cell-based; conditions: Homo sapiens
HCC-2998 = test: NCI 60-cell line growth inhibition assay; format: cell-based; conditions: Homo sapiens
HCT-116 = test: NCI 60-cell line growth inhibition assay; format: cell-based; conditions: Homo sapiens
CCRF-CEM = test: NCI 60-cell line growth inhibition assay; format: cell-based; conditions: Homo sapiens
MALME-3M = test: NCI 60-cell line growth inhibition assay; format: cell-based; conditions: Homo sapiens
UACC-257 = test: NCI 60-cell line growth inhibition assay; format: cell-based; conditions: Homo sapiens
UACC-62 = test: NCI 60-cell line growth inhibition assay; format: cell-based; conditions: Homo sapiens
NCI-H23 = test: NCI 60-cell line growth inhibition assay; format: cell-based; conditions: Homo sapiens
OVCAR-3 = test: NCI 60-cell line growth inhibition assay; format: cell-based; conditions: Homo sapiens
DU-145 = test: NCI 60-cell line growth inhibition assay; format: cell-based; conditions: Homo sapiens
PC-3 = test: NCI 60-cell line growth inhibition assay; format: cell-based; conditions: Homo sapiens
786-0 = test: NCI 60-cell line growth inhibition assay; format: cell-based; conditions: Homo sapiens
A498 = test: NCI 60-cell line growth inhibition assay; format: cell-based; conditions: Homo sapiens
ACHN = test: NCI 60-cell line growth inhibition assay; format: cell-based; conditions: Homo sapiens
[1] = test system: Tumor Cells in Hollow Fibers; test: NCI Hollow Fiber Assay (in vivo evaluation); conditions: for IP Score: IP fibers; for SC score: SC fibers
[2] = MTD (NCI in vivo evaluation, Table 8); conditions: mouse
HeLa S-3 cells = test: Inhibition of cell growth of HeLa cells (SRB); format: cell-based, human; conditions: 2 days of treatment, replicate experiments
SK-MEL-2 = test: NCI 60-cell line growth inhibition assay; format: cell-based; conditions: Homo sapiens; SK-MEL-2 (Melanoma)
CyclinA/cdk2 = CyclinA/cdk2 (Homo sapiens, UniProt P24941); test: CyclinA/cdk2 protein kinase assay (histone H1 phosphorylation); conditions: IC50 CyclinA/cdk2, complex immunopurified from HeLa cells; 15 μM ATP; replicate experiments
CyclinE/cdk2 = CyclinE/cdk2 (Homo sapiens, UniProt P24941); test: CyclinE/cdk2 protein kinase assay (histone H1 phosphorylation); conditions: IC50 CyclinE/cdk2, complex immunopurified from HeLa cells; 15 μM ATP; replicate experiments
CyclinB/cdk1 = target: T1, CyclinB/cdk1 (Homo sapiens, UniProt P06493); test: CyclinB/cdk1 protein kinase assay (histone H1 phosphorylation); format: biochemical; conditions: complex immunopurified from HeLa cells; 15 μM ATP; replicate experiments
T1 construct: Monoclonal antibody against cyclinB (GNS1) is added to the supernatant; endogenous in cells
T1 sequence (P06493 whole entry): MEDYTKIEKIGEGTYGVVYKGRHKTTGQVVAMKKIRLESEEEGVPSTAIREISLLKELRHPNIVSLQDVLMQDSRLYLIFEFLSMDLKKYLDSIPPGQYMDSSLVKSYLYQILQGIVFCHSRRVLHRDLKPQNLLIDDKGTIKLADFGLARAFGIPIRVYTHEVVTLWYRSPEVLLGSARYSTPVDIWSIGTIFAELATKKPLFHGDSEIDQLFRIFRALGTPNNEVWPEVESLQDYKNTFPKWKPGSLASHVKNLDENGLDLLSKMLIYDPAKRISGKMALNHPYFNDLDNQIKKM
T1 sequence (P14635 whole entry partner): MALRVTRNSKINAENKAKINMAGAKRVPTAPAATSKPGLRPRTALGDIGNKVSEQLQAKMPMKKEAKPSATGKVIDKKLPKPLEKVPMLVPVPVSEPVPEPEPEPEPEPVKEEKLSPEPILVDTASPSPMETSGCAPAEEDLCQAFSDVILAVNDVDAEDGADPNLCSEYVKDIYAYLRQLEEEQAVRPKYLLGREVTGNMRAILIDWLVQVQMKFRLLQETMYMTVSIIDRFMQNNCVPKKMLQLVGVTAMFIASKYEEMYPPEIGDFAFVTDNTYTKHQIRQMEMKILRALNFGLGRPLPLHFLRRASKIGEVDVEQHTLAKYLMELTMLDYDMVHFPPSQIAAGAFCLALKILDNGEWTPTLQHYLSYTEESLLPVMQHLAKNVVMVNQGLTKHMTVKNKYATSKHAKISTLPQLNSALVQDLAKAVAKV
Experimental: HeLa cells are blocked at the G1/S border by culturing in the presence of 2 mM thymidine for 20 h. The cells are then rinsed 3×in phosphate buffered saline and resuspended in regular medium. After 4 h of culture, the mitotic blocker, nocodazole is added to a final concentration of 75 ng/ml. […] The lysate is then clarified by centrifugation at 10,000×g for 10 min. The supernatant is collected and diluted 1:5 with Lysis Buffer. Monoclonal antibody against cyclinB (GNS1) is added to the supernatant to a final concentration of 5 μg/ml and shaken at 4° C. for 2 h. The immune complexes are then collected by the addition of 200 μl of protein agarose beads for 1 h. The beads are washed 4×in lysis buffer and 1×in kinase assay buffer.
Duplicate assays were performed at each concentration.

## CC[C@H](CO)Nc1nc(NCc2ccc(-c3ccccn3)cc2)c2ncn(C(C)C)c2n1 [Compound 17]
BT-549; Breast, BT-549
  GI50: 0.4 µM
NCI/ADR-RES; Breast, NCI/ADR-RES
  GI50: 0.28 µM
T-47D; Breast, T-47D
  GI50: 0.13 µM
SF-268; CNS, SF-268
  GI50: 0.04 µM
SF-539; CNS, SF-539
  GI50: 0.4 µM
SNB-19; CNS, SNB-19
  GI50: 0.14 µM
HCC-2998; Colon, HCC-2998
  GI50: 0.03 µM
HCT-116; Colon, HCT-116
  GI50: 0.16 µM
CCRF-CEM; Leukemia, CCRF-CEM
  GI50: 0.16 µM
MALME-3M; Melanoma, MALME-3M
  GI50: 19.9 µM
UACC-257; Melanoma, UACC-257
  GI50: 0.2 µM
UACC-62; Melanoma, UACC-62
  GI50: 0.27 µM
NCI-H23; Non-Small Cell Lung, NCI-H23
  GI50: 0.16 µM
OVCAR-3; Ovarian, OVCAR-3
  GI50: 0.65 µM
DU-145; Prostate, DU-145
  GI50: 0.63 µM
PC-3; Prostate, PC-3
  GI50: 0.2 µM
786-0; Renal, 786-0
  GI50: 0.25 µM
A498; Renal, A498
  GI50: 1.58 µM
ACHN; Renal, ACHN
  GI50: 0.4 µM
[1]
  IP Score: 8
  SC score: 0
[2]
  MTD: 100 mg/kg

## CC[C@H](CO)Nc1nc(NCc2ccc(-c3ccc(OC)cc3)cc2)c2ncn(C(C)C)c2n1 [Compound 43]
HeLa S-3 cells; Homo sapiens, HeLa S3, 48 h
  GI50: 4 µM
BT-549; BT-549 (Breast)
  GI50: 4 µM
NCI/ADR-RES; NCI/ADR-RES (Breast)
  GI50: 5.2 µM
T-47D; T-47D (Breast)
  GI50: 2.2 µM
SF-268; SF-268 (CNS)
  GI50: 3 µM
SF-539; SF-539 (CNS)
  GI50: 3.4 µM
SNB-19; SNB-19 (CNS)
  GI50: 5 µM
HCC-2998; HCC-2998 (Colon)
  GI50: 3.4 µM
HCT-116; HCT-116 (Colon)
  GI50: 2.1 µM
CCRF-CEM; CCRF-CEM (Leukemia)
  GI50: 2.8 µM
MALME-3M; MALME-3M (Melanoma)
  GI50: 3 µM
SK-MEL-2
  GI50: 61.7 µM
UACC-257; UACC-257 (Melanoma)
  GI50: 4.8 µM
UACC-62; UACC-62 (Melanoma)
  GI50: 3.3 µM
NCI-H23; NCI-H23 (Non-Small Cell Lung)
  GI50: 4.3 µM
OVCAR-3; OVCAR-3 (Ovarian)
  GI50: 9.3 µM
DU-145; DU-145 (Prostate)
  GI50: 2.6 µM
PC-3; PC-3 (Prostate)
  GI50: 38.9 µM
786-0; 786-0 (Renal)
  GI50: 3.1 µM
A498; A498 (Renal)
  GI50: 3 µM
ACHN; ACHN (Renal)
  GI50: 3.1 µM

## CC[C@H](CO)Nc1nc(NCc2ccc(-c3cccc([N+](=O)[O-])c3)cc2)c2ncn(C(C)C)c2n1 [Compound 48]
HeLa S-3 cells
  GI50: 0.6 µM and 0.5 µM
HeLa S-3 cells; Homo sapiens, HeLa S3, 48 h
  GI50: 0.3 µM
BT-549; BT-549 (Breast)
  GI50: 0.01 µM
NCI/ADR-RES; NCI/ADR-RES (Breast)
  GI50: 0.12 µM
T-47D; T-47D (Breast)
  GI50: 0.15 µM
SF-268; SF-268 (CNS)
  GI50: < 0.01 µM
SF-539; SF-539 (CNS)
  GI50: 0.38 µM
SNB-19; SNB-19 (CNS)
  GI50: 0.02 µM
HCT-116; HCT-116 (Colon)
  GI50: 0.19 µM
CCRF-CEM; CCRF-CEM (Leukemia)
  GI50: 0.03 µM
MALME-3M; MALME-3M (Melanoma)
  GI50: 0.13 µM
SK-MEL-2
  GI50: 0.48 µM
UACC-257; UACC-257 (Melanoma)
  GI50: 0.04 µM
UACC-62; UACC-62 (Melanoma)
  GI50: 0.1 µM
NCI-H23; NCI-H23 (Non-Small Cell Lung)
  GI50: 0.07 µM
OVCAR-3; OVCAR-3 (Ovarian)
  GI50: 0.17 µM
DU-145; DU-145 (Prostate)
  GI50: 0.55 µM
PC-3; PC-3 (Prostate)
  GI50: 0.23 µM
786-0; 786-0 (Renal)
  GI50: 0.25 µM
A498; A498 (Renal)
  GI50: 0.39 µM
ACHN; ACHN (Renal)
  GI50: 0.25 µM
CyclinA/cdk2
  IC50: 22 µM and 6 µM
CyclinE/cdk2
  IC50: 1 µM and 5 µM

## CC(C)n1cnc2c(NCc3ccc(-c4ccccn4)cc3)nc(N[C@H]3CC[C@H](N)CC3)nc21 [Compound 78]
CyclinB/cdk1
  IC50: 0.8 µM
BT-549; BT-549 (Breast)
  GI50: 0.04 µM
NCI/ADR-RES; NCI/ADR-RES (Breast)
  GI50: 14.5 µM
T-47D; T-47D (Breast)
  GI50: 0.03 µM
SNB-19; SNB-19 (CNS)
  GI50: < 0.01 µM
HCC-2998; HCC-2998 (Colon)
  GI50: < 0.01 µM
HCT-116; HCT-116 (Colon)
  GI50: 0.03 µM
MALME-3M; MALME-3M (Melanoma)
  GI50: 0.01 µM
SK-MEL-2
  GI50: 0.02 µM
UACC-257; UACC-257 (Melanoma)
  GI50: 0.02 µM
UACC-62; UACC-62 (Melanoma)
  GI50: 0.03 µM
NCI-H23; NCI-H23 (Non-Small Cell Lung)
  GI50: 0.01 µM
OVCAR-3; OVCAR-3 (Ovarian)
  GI50: 0.03 µM
DU-145; DU-145 (Prostate)
  GI50: 0.06 µM
PC-3; PC-3 (Prostate)
  GI50: < 0.01 µM
786-0; 786-0 (Renal)
  GI50: 0.04 µM
A498; A498 (Renal)
  GI50: 0.03 µM
ACHN; ACHN (Renal)
  GI50: 0.32 µM
[1]
  Cell Types Killed: OVCAR 3, SF29
  IP Score: 34
  SC score: 0
[2]
  MTD: 6.3 mg/kg
CyclinA/cdk2
  IC50: 0.9 µM and 0.7 µM
CyclinE/cdk2
  IC50: 0.6 µM and 0.3 µM and 0.2 µM

## CC(=O)N[C@H]1CC[C@H](Nc2nc(NCc3ccc(-c4ccccc4)nc3)c3ncn(C(C)C)c3n2)CC1 [Compound 87]
CyclinB/cdk1
  IC50: 5 µM
HeLa S-3 cells
  GI50: 0.006 µM
BT-549; BT-549 (Breast)
  GI50: 0.02 µM
NCI/ADR-RES; NCI/ADR-RES (Breast)
  GI50: 0.28 µM
T-47D; T-47D (Breast)
  GI50: 0.048 µM
SF-268; SF-268 (CNS)
  GI50: < 0.01 µM
SF-539; SF-539 (CNS)
  GI50: 0.081 µM
SNB-19; SNB-19 (CNS)
  GI50: 0.038 µM
HCC-2998; HCC-2998 (Colon)
  GI50: < 0.01 µM
HCT-116; HCT-116 (Colon)
  GI50: 0.037 µM
CCRF-CEM; CCRF-CEM (Leukemia)
  GI50: < 0.01 µM
MALME-3M; MALME-3M (Melanoma)
  GI50: 0.024 µM
SK-MEL-2
  GI50: 0.056 µM
UACC-62; UACC-62 (Melanoma)
  GI50: 0.045 µM
NCI-H23; NCI-H23 (Non-Small Cell Lung)
  GI50: 0.022 µM
OVCAR-3; OVCAR-3 (Ovarian)
  GI50: 0.05 µM
DU-145; DU-145 (Prostate)
  GI50: 0.22 µM
PC-3; PC-3 (Prostate)
  GI50: 0.018 µM
786-0; 786-0 (Renal)
  GI50: 0.047 µM
A498; A498 (Renal)
  GI50: 0.1 µM
ACHN; ACHN (Renal)
  GI50: 0.19 µM
[1]
  IP Score: 30
  SC score: 2
CyclinA/cdk2
  IC50: 4 µM and 2 µM and 0.5 µM
CyclinE/cdk2
  IC50: 1 µM and 0.3 µM and 0.1 µM

## Cn1cnc2c(NCc3ccccc3)nc(NCCO)nc21 [Olomoucine, reference compound]
HeLa S-3 cells; Homo sapiens, HeLa S3, 48 h
  GI50: 75 µM
BT-549; BT-549 (Breast)
  GI50: 79 µM
NCI/ADR-RES; NCI/ADR-RES (Breast)
  GI50: 100 µM
T-47D; T-47D (Breast)
  GI50: 63 µM
SF-268; SF-268 (CNS)
  GI50: 50 µM
SF-539; SF-539 (CNS)
  GI50: 32 µM
SNB-19; SNB-19 (CNS)
  GI50: 63 µM
HCC-2998; HCC-2998 (Colon)
  GI50: 63 µM
HCT-116; HCT-116 (Colon)
  GI50: 40 µM
CCRF-CEM; CCRF-CEM (Leukemia)
  GI50: 40 µM
MALME-3M; MALME-3M (Melanoma)
  GI50: 100 µM
SK-MEL-2
  GI50: 100 µM
UACC-257; UACC-257 (Melanoma)
  GI50: 79 µM
UACC-62; UACC-62 (Melanoma)
  GI50: 32 µM
NCI-H23; NCI-H23 (Non-Small Cell Lung)
  GI50: 79 µM
OVCAR-3; OVCAR-3 (Ovarian)
  GI50: 79 µM
DU-145; DU-145 (Prostate)
  GI50: 40 µM
PC-3; PC-3 (Prostate)
  GI50: 100 µM
786-0; 786-0 (Renal)
  GI50: 63 µM
A498; A498 (Renal)
  GI50: 32 µM
ACHN; ACHN (Renal)
  GI50: 25 µM
